The values that follow come from the supplement of paper PMC11616607.

The structures appear in SMILES notation.

The first assay deals with COV318. The assay can be described thus: drug sensitivity score (DSS) from 5-point dose-response viability curve (DSS (area-under-curve based score)); higher = more sensitive (stronger growth inhibition or killing); extreme values may be limits of the assay. Particulars: exposure time: 72 h; concentration range: 5 concentrations over 10,000-fold range. In short, it runs like this:
(§1)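 Ovarian cancer and normal ovarian cell lines were tested in 384-well plates, with drugs dispensed acoustically (Echo 550) in DMSO or water at five concentrations covering a 10,000-fold range. After 1,500 cells per well were added, plates were incubated for 3 days at 37°C and 5% CO2, and viability was read by CellTiter-Glo luminescence on a PHERAstar FS. Breeze software gave a drug sensitivity score for each cell line and drug, where a higher score means greater sensitivity. A value of zero means no response.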
Take `CCc1cnn2c(NCc3ccc[n+]([O-])c3)cc(N3CCCC[C@H]3CCO)nc12` [Dinaciclib]: the drug sensitivity score is 15.9.

For the molecule `O=C(O)c1ccc(CN2CCC(CN[C@@H]3C[C@H]3c3ccccc3)CC2)cc1`, the drug sensitivity score came out at 0.

`CN1CCN(c2ccc(C(=O)Nc3n[nH]c4ccc(Cc5cc(F)cc(F)c5)cc34)c(NC3CCOCC3)c2)CC1` [Entrectinib]: the drug sensitivity score was 0.

The molecule `O=c1[nH]c(=O)n([C@H]2C[C@H](O)[C@@H](CO)O2)cc1C(F)(F)F` [Trifluridine] gave a drug sensitivity score of 0.

In turn, `CCOC(=O)C1=CCCC[C@H]1S(=O)(=O)Nc1ccc(F)cc1Cl` [Resatorvid] returned a drug sensitivity score of 0.

For the molecule `CN(Cc1cnc2nc(N)nc(N)c2n1)c1ccc(C(=O)N[C@@H](CCC(=O)O)C(=O)O)cc1` [Methotrexate], the drug sensitivity score came to 0.

Take `CN1CCN(C2CCC(n3cc(-c4ccc(Oc5ccccc5)cc4)c4c(N)ncnc43)CC2)CC1` (configuration not stated): the drug sensitivity score turned out to be 6.9.

`COc1cc2nccc(Oc3ccc(NC(=O)Nc4cc(C)on4)c(Cl)c3)c2cc1OC` [Tivozanib] displayed a drug sensitivity score of 0.6.

Molecule `C[C@H]1C[C@@H](n2c(Nc3ccc(OC(F)(F)F)cc3)nc3cc(CCC(=O)O)ccc32)CC(C)(C)C1` had a drug sensitivity score of 0.

For `CN1CCN(C2CCN(C(=O)Nc3cc(Oc4ccc(NC(=O)C5(C(=O)Nc6ccc(F)cc6)CC5)c(F)c4)ccn3)CC2)CC1` [Golvatinib], the drug sensitivity score is 0.

As for `Cc1cc([C@@H](C)Nc2ccccc2C(=O)O)c2nc(N3CCOCC3)cc(=O)n2c1` [AZD-6482], the drug sensitivity score was found to be 0.1.

Molecule `CC1=C(/C=C/C(C)=C/C=C/C(C)=C/C(=O)O)C(C)(C)CCC1` [Tretinoin] had a drug sensitivity score of 0.

In the case of `CC[C@H](Nc1ncnc2[nH]cnc12)c1nc2cccc(F)c2c(=O)n1-c1ccccc1` [Idelalisib], the drug sensitivity score amounted to 0.7.

The molecule `O=c1[nH]cc(F)c(=O)[nH]1` [Fluorouracil] showed a drug sensitivity score of 0.

Molecule `O=C(NOCCO)c1ccc2cncn2c1Nc1ccc(I)cc1F` [GDC-0623] had a drug sensitivity score of 0.

`CC(C)[C@H](C(=O)Nc1ccc(C(=O)NO)cc1)c1ccccc1` [AR-42] displayed a drug sensitivity score of 7.5.

In a further assay the test system is COV362. The description is as above. Particulars: exposure time: 72 h; concentration range: 5 concentrations over 10,000-fold range. In short, it runs like this:
as §1
Take `COc1c(C)cnc(Cn2cnc3c(Cl)nc(N)nc32)c1C` [BIIB021]: the drug sensitivity score worked out at 9.5.

In turn, `CO[C@@H]1[C@H](N(C)C(=O)c2ccccc2)C[C@H]2O[C@]1(C)n1c3ccccc3c3c4c(c5c6ccccc6n2c5c31)C(=O)NC4` [Midostaurin] registered a drug sensitivity score of 5.

For `COc1ccc(S(=O)(=O)Nc2cccnc2Nc2ccc(O)cc2)cc1` [ABT-751], the drug sensitivity score turned out to be 4.3.

In turn, `COc1cc2ncnc(Nc3cccc(Cl)c3F)c2cc1OC(=O)N1CCN(C)C[C@H]1C` [AZD3759] displayed a drug sensitivity score of 0.

`C[C@H]1CN(C2COC2)CCN1c1ccc(Nc2cc(-c3ccnc(N4CCn5c(cc6c5CC(C)(C)C6)C4=O)c3CO)cn(C)c2=O)nc1` [GDC-0853] returned a drug sensitivity score of 0.

With `CCCOc1ccn2c(C(C)=O)cc(-c3ccccc3S(C)(=O)=O)c2c1` [GSK2801], the drug sensitivity score worked out at 0.

The molecule `CC(C)N(CCCNC(=O)Nc1ccc(C(C)(C)C)cc1)C[C@H]1O[C@@H](n2cc(Br)c3c(N)ncnc32)[C@H](O)[C@@H]1O` [SGC0946] displayed a drug sensitivity score of 3.4.

Molecule `Cc1ccc(-n2nc(C(C)(C)C)cc2NC(=O)Nc2ccc(OCCN3CCOCC3)c3ccccc23)cc1` [Doramapimod] showed a drug sensitivity score of 0.

In turn, `CO[C@@H](C)Cn1c(=O)n(C)c2cnc3ccc(-c4cncc(C(C)(C)O)c4)cc3c21` gave a drug sensitivity score of 3.8.

In turn, `C[C@@H]1C[C@H]2[C@@H]3CCC4=CC(=O)C=C[C@]4(C)[C@@]3(F)[C@@H](O)C[C@]2(C)[C@@]1(O)C(=O)CO` [Dexamethasone] had a drug sensitivity score of 0.5.

The molecule `CN1CCN(c2nc(C3=C(c4c[nH]c5ccccc45)C(=O)NC3=O)c3ccccc3n2)CC1` [Sotrastaurin] had a drug sensitivity score of 1.5.

In turn, `Cc1cc(F)c(C(=O)Nc2cccc(-c3nncn3C(C)C)n2)cc1-n1cnc(C2CC2)c1` [Selonsertib] yielded a drug sensitivity score of 0.

Take `O=C(/C=C\n1cnc(-c2cc(C(F)(F)F)cc(C(F)(F)F)c2)n1)NNc1ccccn1` [Verdinexor]: the drug sensitivity score was 4.7.

`Cn1nnc2c(C(N)=O)ncn2c1=O` [Temozolomide] came in with a drug sensitivity score of 0.

The molecule `NC(=O)N1CCC(CC(=O)N2CCC([C@H]3c4ncc(Br)cc4CCc4cc(Cl)cc(Br)c43)CC2)CC1` [Lonafarnib] displayed a drug sensitivity score of 1.9.

As for `CCc1cnn2c(NCc3ccc[n+]([O-])c3)cc(N3CCCC[C@H]3CCO)nc12` [Dinaciclib], the drug sensitivity score was 13.6.

`O=C(O)c1ccc(CN2CCC(CN[C@@H]3C[C@H]3c3ccccc3)CC2)cc1` came in with a drug sensitivity score of 0.

In the case of `CN1CCN(c2ccc(C(=O)Nc3n[nH]c4ccc(Cc5cc(F)cc(F)c5)cc34)c(NC3CCOCC3)c2)CC1` [Entrectinib], the drug sensitivity score came out at 0.1.

For `O=c1[nH]c(=O)n([C@H]2C[C@H](O)[C@@H](CO)O2)cc1C(F)(F)F` [Trifluridine], the drug sensitivity score was determined as 0.

For `CCOC(=O)C1=CCCC[C@H]1S(=O)(=O)Nc1ccc(F)cc1Cl` [Resatorvid], the drug sensitivity score stood at 0.

Turning to `CN(Cc1cnc2nc(N)nc(N)c2n1)c1ccc(C(=O)N[C@@H](CCC(=O)O)C(=O)O)cc1` [Methotrexate], the drug sensitivity score was determined as 14.5.

Regarding `CN1CCN(C2CCC(n3cc(-c4ccc(Oc5ccccc5)cc4)c4c(N)ncnc43)CC2)CC1` (configuration not stated), the drug sensitivity score was found to be 11.5.

The molecule `COc1cc2nccc(Oc3ccc(NC(=O)Nc4cc(C)on4)c(Cl)c3)c2cc1OC` [Tivozanib] showed a drug sensitivity score of 0.

`C[C@H]1C[C@@H](n2c(Nc3ccc(OC(F)(F)F)cc3)nc3cc(CCC(=O)O)ccc32)CC(C)(C)C1`: the drug sensitivity score stood at 0.

In turn, `CN1CCN(C2CCN(C(=O)Nc3cc(Oc4ccc(NC(=O)C5(C(=O)Nc6ccc(F)cc6)CC5)c(F)c4)ccn3)CC2)CC1` [Golvatinib] yielded a drug sensitivity score of 0.

The molecule `Cc1cc([C@@H](C)Nc2ccccc2C(=O)O)c2nc(N3CCOCC3)cc(=O)n2c1` [AZD-6482] displayed a drug sensitivity score of 0.

In turn, `CC1=C(/C=C/C(C)=C/C=C/C(C)=C/C(=O)O)C(C)(C)CCC1` [Tretinoin] returned a drug sensitivity score of 0.

Molecule `CC[C@H](Nc1ncnc2[nH]cnc12)c1nc2cccc(F)c2c(=O)n1-c1ccccc1` [Idelalisib] showed a drug sensitivity score of 1.3.

Consider `O=c1[nH]cc(F)c(=O)[nH]1` [Fluorouracil], for which the drug sensitivity score is 0.

`O=C(NOCCO)c1ccc2cncn2c1Nc1ccc(I)cc1F` [GDC-0623] returned a drug sensitivity score of 2.3.

Consider `CC(C)[C@H](C(=O)Nc1ccc(C(=O)NO)cc1)c1ccccc1` [AR-42], for which the drug sensitivity score amounted to 2.9.
